Values quoted from earlier work as cited in US20040067252A1, “Novel modified release formulation” (priority 2001, published 2004).
≈ marks a conversion by molar mass, not a printed value.

Conditions: at 25° C.

Cn1c(=O)c2[nH]cnc2n(C)c1=O [theophylline]
water solubility: 8300 µg/mL (≈ 46.1 mM)
